Laboratory results reported in US9365522B2, “Pyrazole amide derivative” (AMGEN INC., priority 2015, dated 2016).

What follows are compounds tested against T1, ligand binding domain of human ROR gamma (Homo sapiens, UniProt P51449) (assay: ROR gamma reporter gene assay (GAL4-RORγ LBD luciferase, Dual-Glo)). Settings: HEK293T cells transfected with pM-ROR gamma, 8 concentrations 3.5 nM to 10.5 μM, 24 h incubation.
T1 construct: NM_001001523; expressed in transfected cells; host or cells: HEK293T
T1 sequence (P51449 247-497 isoform P51449-2): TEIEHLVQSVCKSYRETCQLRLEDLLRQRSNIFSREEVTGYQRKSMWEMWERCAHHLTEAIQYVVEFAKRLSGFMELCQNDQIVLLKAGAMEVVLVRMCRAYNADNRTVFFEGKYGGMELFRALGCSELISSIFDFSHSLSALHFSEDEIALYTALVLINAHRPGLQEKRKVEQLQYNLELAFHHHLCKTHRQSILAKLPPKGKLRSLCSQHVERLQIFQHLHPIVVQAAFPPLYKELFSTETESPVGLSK
Assay type: cell-based
Outline: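 HEK293T cells co-transfected with GAL4-DBD fused to human RORγ LBD (aa 247-497), 5×UAS firefly luciferase reporter and CMV-renilla, in charcoal-stripped serum.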

Going from “cis-3-(4-((2-(3,5-dichloropyridin-4-yl)-2- oxoethyl)(4-fluorobenzyl)carbamoyl)-5- (trifluoromethyl)-1H-pyrazol-1-yl)-1- fluorocyclohexanecarboxylic acid [Example 83]” to “trans-4-(4-((2-(3-chloro-5-fluoropyridin-4-yl)- 2-oxoethyl)-(2,2-dimethylbutyl)carbamoyl)-5- (trifluoromethyl)pyrazol-1-yl)-1- methylcyclohexane-1-carboxylic acid [Example 337]”, the “result (pIC50, inhibition of RORγ transcriptional activity)” value rises from 5.78 to 7.20.

Same assay, conditions: HEK293T cells transfected with pM-ROR gamma, 8 concentrations 3.5 nM to 10.5 μM, 24 h incubation; read-out: result (pIC50, inhibition of RORγ transcriptional activity) (converted)

Going from `Cc1nccnc1C(O)CN(C(=O)c1cnn([C@H]2CC[C@](C)(C(=O)O)CC2)c1C(F)(F)F)[C@H]1C[C@@H]2[C@H](C1)C2(C)C` (stereo partly drawn) [Example 410, trans-4-(4-(((1R,3r,5S)-6,6-dimethylbicyclo[3.1.0]hexan-3-yl)(2-hydroxy-2-(3-methylpyrazin-2-yl)ethyl)carbamoyl)-5-(trifluoromethyl)-1H-pyrazol-1-yl)-1-methylcyclohexanecarboxylic acid] to `CC1(C)[C@@H]2C[C@H](N(CC(O)c3ccsc3Cl)C(=O)c3cnn([C@H]4CC[C@](C)(C(=O)O)CC4)c3C(F)(F)F)C[C@@H]21` (stereo partly drawn) [Example 411, trans-4-(4-((2-(2-chlorothiophen-3-yl)-2-hydroxyethyl)((1R,3r,5S)-6,6-dimethylbicyclo[3.1.0]hexan-3-yl)carbamoyl)-5-(trifluoromethyl)-1H-pyrazol-1-y1)-1-methylcyclohexanecarboxylic acid], the IC50 falls from 2.14e+06 pM to 224000 pM (9.6-fold).

`O=C(c1c(C(F)(F)F)nn([C@H]2CC[C@H](C(=O)O)CC2)c1C(F)(F)F)N(CCc1c(Cl)cncc1Cl)Cc1ccc(F)cc1` [Example 412, trans-4-(4-(2-(3,5-dichloropyridin-4-yl)ethyl-((4-fluorophenyl)methyl)carbamoyl)-3,5-bis(trifluoromethyl)pyrazol-1-yl)cyclohexane-1-carboxylic acid] was tested, and the IC50 was 1.12e+06 pM.

The compounds below were run against T2, human RORγ-LBD (Homo sapiens, UniProt P51449) (assay: ROR gamma coactivator peptide recruitment Alphascreen assay (RORγ-LBD binding to GRIP1 coactivator peptide)). Settings: 5 nM human RORγ-LBD, 30 nM 7-β-hydroxycholesterol, 50 nM biotinylated GRIP1 coactivator peptide, overnight incubation at room temperature; read-out: result (pIC50, RORγ coactivator peptide recruitment Alphascreen assay) (converted).
T2 construct: made in house; host or cells: E. coli (BL-21)
T2 sequence (P51449 262-518): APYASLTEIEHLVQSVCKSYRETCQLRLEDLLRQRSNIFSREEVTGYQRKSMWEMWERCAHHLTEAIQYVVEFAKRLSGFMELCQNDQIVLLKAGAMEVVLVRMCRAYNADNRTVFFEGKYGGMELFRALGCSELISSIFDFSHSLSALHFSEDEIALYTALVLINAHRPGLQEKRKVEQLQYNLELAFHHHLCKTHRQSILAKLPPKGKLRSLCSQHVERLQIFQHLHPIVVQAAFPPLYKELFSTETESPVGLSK
Assay type: biochemical
Source text: Alphascreen™ is a bead-based amplified homogenous luminescent proximity assay that can be used for measuring the effect of compounds on protein-protein interactions. When biological interactions bring donor and acceptor beads into close proximity, reactive oxygen, generated upon laser excitation of the donor beads, initiates a luminescence/fluorescence cascade in the acceptor beads that leads to a highly amplified signal that can be measured as light in the 520-620 nm range. When the acceptor and donor beads are not in proximity, the reactive oxygen decays and only a very low background signal is generated.
An in vitro assay to assess inhibition of RORγ binding to the coactivator GRIP1 was established using Alphascreen™ technology. The interaction between nuclear receptors (NR) and coactivator proteins is a key step in signal transduction from the receptor to the transcriptional machinery and can be measured in vitro using only the ligand binding domain of the nuclear receptor and a peptide containing a coactivator protein LXXLL nuclear receptor binding motif
For the RORγ construct used in the coactivator recruitment assay, nucleotides corresponding to the ligand binding domain (LBD) of wild type human RORγ (amino acids 262-518 of Genbank Accession No. NM_005060.3) were cloned into the pET24 expression vector (Novagen), downstream of in-frame N-terminal 6×His and Flag tag sequences. Recombinant 6×His:Flag-tagged human RORγ-LBD protein was expressed in E. coli (BL-21) and purified by affinity chromatography on a nickel Sepharose column, followed by anion exchange chromatography.
A 4× assay mixture of 6×His:Flag-tagged human RORγ-LBD with the agonist ligand 7-β-hydroxycholesterol was prepared in assay buffer (50 mM HEPES pH 7.4, BSA 0.05%, 150 mM NaCl, 5 mM MgCl2, 1 mM DTT, 0.01% Tween-20). For control wells a 4× mixture of 6×His:Flag-tagged human ROR gamma LBD alone was also prepared.
A 4× stock of biotinylated coactivator peptide containing the LXXLL motif from GRIP1 (Biotin-[…]) was prepared in assay buffer.
A 4×detection mixture of nickel chelate Alphascreen™ acceptor beads (PerkinElmer) and streptavidin Alphascreen™ donor beads (PerkinElmer) was prepared in assay buffer.
Compounds to be tested were arranged in a pre-dose 384-well mother plate serially diluted 1 in 2 over 22 columns, in 100% DMSO, at 40× the final test concentration, from a high concentration of 4 mM. DMSO with no compound was placed in control columns. The compounds were robotically dispensed directly into assay plates containing assay buffer to a 4× final test concentration.
Following compound addition, the 6×His:Flag-tagged human RORγ-LBD plus 7-β-hydroxycholesterol assay mixture, biotinylated coactivator peptide and detection mixture were added. Final assay conditions were 5 nM 6×His:Flag-tagged human RORγ-LBD, 30 nM 7-β-hydroxycholesterol, 50 nM biotinylated coactivator peptide, 2.5 ug/ml nickel acceptor beads and 10 ug/ml streptavidin donor beads. The final concentration of DMSO in the assay was 2.5%.
After overnight incubation at room temperature plates were read on and Envision™ plate reader (PerkinElmer).
Data was plotted and pIC50 values were calculated using the Genedata Screener™ data analysis suite (Genedata).

Going from `COC(CN(CC(C)(C)C)C(=O)c1cnn([C@H]2CC[C@H](C(=O)O)CC2)c1C(F)(F)F)c1c(Cl)cc(C)cc1Cl` (relative stereo) [Example 529, trans-4-(4-(((2R/S)-2-(2,6-dichloro-4-methylphenyl)-2-methoxyethyl)(2,2-dimethylpropyl)carbamoyl)-5-(trifluoromethyl)-1H-pyrazol-1-yl)cyclohexanecarboxylic acid] to `Cc1cc(Cl)c(CCN(CC(C)(C)C)C(=O)c2cnn(C3CCC(C(=O)O)CC3)c2C(F)(F)F)c(Cl)c1` (stereo in doubt) [Example 512, trans-4-(4-((2-(2,6-dichloro-4-methylphenyl)ethyl)(2,2 - dimethylpropyl)carbamoyl)-5-(trifluoromethyl)-1H-pyrazol-1-yl)cyclohexanecarboxylic acid], the IC50 falls from 63.1 nM to 7.24 nM (8.7-fold).

First: CC(C)[C@@H]1C[C@H](Cc2c(Cl)cncc2Cl)N(C(=O)c2cnn([C@H]3CC[C@](C)(C(=O)O)CC3)c2C(F)(F)F)C1 (single isomer, unassigned) [Example 701]
Second: C[C@]1(C(=O)O)CC[C@H](n2ncc(C(=O)N3C[C@H](C4CCCCC4)C[C@@H]3C(=O)c3c(Cl)cncc3Cl)c2C(F)(F)F)CC1 (single isomer, unassigned) [Example 822]
The IC50 of the first is 630-fold lower: 9.33 nM for the first, 5890 nM for the second.

Going from `CC(C)(C)CN(CC(=O)c1c(Cl)cncc1Cl)C(=O)c1cnn([C@H]2CC[C@H](C(=O)O)C(C)(C)C2)c1C(F)(F)F` (single isomer, unassigned) [Example 785] to `C[C@H]1C[C@@H](n2ncc(C(=O)N(CC(=O)c3c(Cl)cncc3Cl)CC(C)(C)C)c2C(F)(F)F)CC[C@@H]1C(=O)O` (single isomer, unassigned) [Example 813], the IC50 rises from 3.98 nM to 6.03 nM (1.5-fold).

Compared with `C[C@]1(C(=O)O)CC[C@H](n2ncc(C(=O)N3C[C@@H](Oc4ccccc4)C[C@@H]3C(=O)c3c(Cl)cncc3Cl)c2C(F)(F)F)CC1` (single isomer, unassigned) [Example 796], `C[C@]1(C(=O)O)CC[C@H](n2ncc(C(=O)N3C[C@H](C4CCCCC4)C[C@H]3C(=O)c3c(Cl)cncc3Cl)c2C(F)(F)F)CC1` (single isomer, unassigned) [Example 823] is 2-fold lower in IC50: 18200 nM for the first, 9120 nM for the second.

Compared with `CC1(CN(CC(=O)c2c(Cl)cncc2Cl)C(=O)c2cnn([C@H]3CC[C@H](C(=O)O)C(C)(C)C3)c2C(F)(F)F)CCC1` (single isomer, unassigned) [Example 807], `CC(C)(C)CN(CC(=O)c1c(Cl)cncc1Cl)C(=O)c1cnn([C@H]2C[C@]3(C[C@H](C(=O)O)C3)C2)c1C(F)(F)F` (single isomer, unassigned) [Example 837] is 12-fold lower in IC50: 45.7 nM for the first, 3.72 nM for the second.

Compared with `C[C@H]1C[C@@](C)(C(=O)O)CCC1n1ncc(C(=O)N(CC(=O)c2c(Cl)cncc2Cl)CC(C)(C)C)c1C(F)(F)F` (single isomer, unassigned) [Example 843], `C[C@H]1C[C@@H](n2ncc(C(=O)N(CC(=O)c3c(Cl)cncc3Cl)CC(C)(C)C(F)(F)F)c2C(F)(F)F)CC[C@@H]1C(=O)O` (single isomer, unassigned) [Example 879] is 2-fold lower in IC50: 5.89 nM for the first, 2.95 nM for the second.

First: CC1(C)[C@@H]2C[C@H](N(CC(=O)c3c(Cl)cccc3Cl)C(=O)c3cnn([C@H]4C[C@@H](CC(=O)O)C4)c3C(F)(F)F)C[C@@H]21 (single isomer, unassigned) [Example 858]
Second: C[C@@H]1C[C@@H](n2ncc(C(=O)N(CC(=O)c3c(Cl)cccc3Cl)CC3CC(C)(C)C3)c2C(F)(F)F)CC[C@@H]1C(=O)O (stereo in doubt) [Example 572, (1S,2R,4S)-4-(4-((2-(2,6-dichlorophenyl)-2-oxoethyl)((3,3-dimethylcyclobutyl)methyl)carbamoyl) 5-(trifluoromethyl)-1H-pyrazol-1-yl)-2-methylcyclohexanecarboxylic acid]
The IC50 of the first is 2.3-fold lower: 2 nM for the first, 4.68 nM for the second.

First: Cc1cc(Cl)c(CCN(CC2(C)CCCCC2)C(=O)c2cnn(C3CCC(C(=O)O)CC3)c2C(F)(F)F)c(Cl)c1 (stereo in doubt) [Example 511, trans-4-(4-((2-(2,6-dichloro-4-methylphenyl)ethyl)((1-methylcyclohexyl)methyl)carbamoyl)-5-(trifluoromethyl)-1H-pyrazol-1-yl)cyclohexanecarboxylic acid]
Second: Cc1cc(Cl)c(C(=O)CN(C(=O)c2cnn(C3CCC(C(=O)O)CC3)c2C(F)(F)F)C2CCC(C)(C)CC2)c(Cl)c1 (stereo in doubt) [Example 516, trans-4-(4-((2-(2,6-dichloro-4-methylphenyl)-2-oxoethyl)(4,4-dimethylcyclohexyl)carbamoyl)-5-(trifluoromethyl)-1H-pyrazol-1-yl)-1-cyclohexanecarboxylic acid]
The IC50 of the first is 3.2-fold lower: 1.86 nM for the first, 6.03 nM for the second.
